Results on five compounds are retold here after ChEMBL document CHEMBL1150977, “A quantitative analysis of kinase inhibitor selectivity” (Nat Biotechnol, 2008).

Test [1] concerns the target Interferon-induced, double-stranded RNA-activated protein kinase (Homo sapiens, UniProt P19525).
For test [2], the target named is Proto-oncogene tyrosine-protein kinase Src (Homo sapiens, UniProt P12931).
In test [3] the target is T1, Serine/threonine-protein kinase Chk1 (Homo sapiens, UniProt O14757).
T1 sequence (O14757 whole entry): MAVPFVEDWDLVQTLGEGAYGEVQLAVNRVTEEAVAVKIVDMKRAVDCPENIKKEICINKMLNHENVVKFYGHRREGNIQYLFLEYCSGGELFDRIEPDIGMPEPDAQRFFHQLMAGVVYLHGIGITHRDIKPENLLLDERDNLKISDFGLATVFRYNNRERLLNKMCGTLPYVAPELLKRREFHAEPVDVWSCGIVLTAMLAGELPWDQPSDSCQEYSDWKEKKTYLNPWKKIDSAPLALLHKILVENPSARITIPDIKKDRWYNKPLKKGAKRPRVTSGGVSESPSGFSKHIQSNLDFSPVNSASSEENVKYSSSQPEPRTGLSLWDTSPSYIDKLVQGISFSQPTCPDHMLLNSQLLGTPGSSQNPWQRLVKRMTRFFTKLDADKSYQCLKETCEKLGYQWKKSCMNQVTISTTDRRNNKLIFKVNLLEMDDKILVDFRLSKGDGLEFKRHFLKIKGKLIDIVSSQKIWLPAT

Test [4] has as its target Serine/threonine-protein kinase PAK 5 (Homo sapiens, UniProt Q9P286).
The target in test [5] is T2, NUAK family SNF1-like kinase 2 (Homo sapiens, UniProt Q9H093).
T2 sequence (Q9H093 whole entry): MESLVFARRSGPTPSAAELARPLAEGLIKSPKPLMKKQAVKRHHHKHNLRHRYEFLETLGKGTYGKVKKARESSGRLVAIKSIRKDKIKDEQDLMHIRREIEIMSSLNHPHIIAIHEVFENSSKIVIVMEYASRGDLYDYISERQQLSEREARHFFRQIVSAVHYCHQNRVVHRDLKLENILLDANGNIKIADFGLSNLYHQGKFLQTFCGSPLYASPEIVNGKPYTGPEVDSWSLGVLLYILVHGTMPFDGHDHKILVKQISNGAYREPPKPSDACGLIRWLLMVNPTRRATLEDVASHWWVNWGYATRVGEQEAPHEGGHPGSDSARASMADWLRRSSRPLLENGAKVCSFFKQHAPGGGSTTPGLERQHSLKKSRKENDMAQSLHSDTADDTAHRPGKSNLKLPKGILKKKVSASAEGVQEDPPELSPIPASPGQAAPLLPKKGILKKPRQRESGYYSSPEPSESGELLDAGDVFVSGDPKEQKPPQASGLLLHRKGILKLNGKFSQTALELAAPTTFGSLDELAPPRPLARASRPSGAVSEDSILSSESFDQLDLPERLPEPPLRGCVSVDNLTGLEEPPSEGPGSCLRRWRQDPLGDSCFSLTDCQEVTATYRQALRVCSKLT

For test [6], the target named is Serine/threonine-protein kinase PLK1 (Homo sapiens, UniProt P53350).
Test [7] has as its target T3, Serine/threonine-protein kinase Nek2 (Homo sapiens, UniProt P51955).
T3 sequence (P51955 whole entry): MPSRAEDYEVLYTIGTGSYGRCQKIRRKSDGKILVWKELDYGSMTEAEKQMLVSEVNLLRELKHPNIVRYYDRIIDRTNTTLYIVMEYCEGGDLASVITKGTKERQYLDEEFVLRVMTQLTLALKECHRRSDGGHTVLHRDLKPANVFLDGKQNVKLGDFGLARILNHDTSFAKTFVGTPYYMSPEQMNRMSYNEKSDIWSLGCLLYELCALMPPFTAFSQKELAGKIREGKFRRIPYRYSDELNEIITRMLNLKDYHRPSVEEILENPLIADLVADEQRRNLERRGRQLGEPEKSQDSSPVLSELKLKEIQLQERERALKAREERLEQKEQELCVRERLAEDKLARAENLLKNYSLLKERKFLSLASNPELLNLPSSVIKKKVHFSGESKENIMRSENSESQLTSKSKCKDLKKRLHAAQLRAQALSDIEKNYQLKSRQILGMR

Test [8] deals with Serine/threonine-protein kinase MRCK beta (Homo sapiens, UniProt Q9Y5S2).
Test [9] addresses Platelet-derived growth factor receptor beta (Homo sapiens, UniProt P09619).
Test [10] concerns the target T4, Serine/threonine-protein kinase 3 (Homo sapiens, UniProt Q13188).
T4 sequence (Q13188 whole entry): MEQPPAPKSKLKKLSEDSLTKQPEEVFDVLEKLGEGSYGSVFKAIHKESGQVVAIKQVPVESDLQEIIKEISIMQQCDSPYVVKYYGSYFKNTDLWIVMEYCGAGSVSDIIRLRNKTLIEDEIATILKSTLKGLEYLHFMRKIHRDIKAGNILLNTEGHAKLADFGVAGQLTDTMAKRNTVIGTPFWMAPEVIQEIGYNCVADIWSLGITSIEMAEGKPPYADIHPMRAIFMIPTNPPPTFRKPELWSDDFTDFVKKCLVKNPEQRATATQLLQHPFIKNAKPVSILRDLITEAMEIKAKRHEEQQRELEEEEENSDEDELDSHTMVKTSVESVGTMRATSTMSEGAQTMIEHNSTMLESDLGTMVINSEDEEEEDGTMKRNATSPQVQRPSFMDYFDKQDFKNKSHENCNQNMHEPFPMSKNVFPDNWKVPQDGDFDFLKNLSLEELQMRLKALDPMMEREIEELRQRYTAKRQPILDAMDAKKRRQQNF

Test [11] addresses Tyrosine-protein kinase ABL1 (Homo sapiens, UniProt P00519, Q252H).

Consider `COCC(=O)NC/C=C/c1ccc2ncnc(Nc3ccc(Oc4ccc(C)nc4)c(C)c3)c2c1` [CP-724714], for which the Kd in [1], in test [2], in [3], in test [4], in test [5] and in [6] was greater than 10 µM throughout. Also, the Kd in test [7], in test [8], in test [9], in [10] and in test [11] was greater than 10 µM in each case.

Take `Nc1nc(Nc2ccc(S(N)(=O)=O)cc2)nn1C(=O)c1c(F)cccc1F` [JNJ-7706621]: the Kd in [2] is greater than 10 µM; in test [5], 0.026 µM; in test [6], 5 µM; in [8], greater than 10 µM.

Take `CCOc1cc2ncc(C#N)c(Nc3ccc(F)c(Cl)c3)c2cc1NC(=O)/C=C/CN(C)C` [PELITINIB]: the Kd in test [1] is 1.9 µM; in [3] it was 1.9 µM; in test [4], greater than 10 µM; in [5], 2.7 µM; in test [6] it was greater than 10 µM; in test [8] it was greater than 10 µM. Besides, in test [9], the Kd was greater than 10 µM.

As to `Oc1ccc(-c2nc(-c3ccncc3)c(-c3ccc(F)cc3)[nH]2)cc1` [SB-202190], the Kd in test [1], in [2], in [3], in [4], in test [5] and in test [6] was greater than 10 µM throughout. Further, the Kd was greater than 10 µM in [7]; 4.2 µM in [8]; greater than 10 µM in test [9]; greater than 10 µM in [10]; greater than 10 µM in test [11].

In the case of `NC(=O)c1ccc(-c2nc(-c3ccc4c(c3)OCO4)c(-c3ccccn3)[nH]2)cc1` [SB-431542], the Kd in test [1], in [2], in test [3], in [4], in test [5] and in [6] was greater than 10 µM in each case. The Kd in [7], in test [8], in test [9], in [10] and in test [11] was greater than 10 µM throughout.
